Assay results from US5334603A, “Composition and use of 3-phenyl-5-thiocyano-methylthio-1,3,4-thiadiazole-2(3h)thione” (The Dow Chemical Company, priority 1993, dated 1994).
Converted amounts (≈) assume the structure as drawn.

How the values were obtained:
Type in all cases: cell-based
[1] = test system: Trichoderma viride (Tv); test: Minimum inhibitory concentration (MIC), malt yeast agar; conditions: pH 5.5; ATCC 8678; 30° C.; 48 hours for yeast, 72 hours for fungi
Description: (§1) The minimum inhibitory concentration (MIC) for the compound is determined for 9 bacteria, using nutrient agar; and 7 yeast and fungi, using malt yeast agar. A one percent solution of the test compound is prepared in a mixture of acetone and water. Nutrient agar is prepared at pH 6.8, representing a neutral medium, and at pH 8.2, representing an alkaline medium. The nutrient agars are prepared by adding 23 g of nutrient agar to one-liter of deionized water. In addition, the alkaline medium is prepared by adjusting a 0.04M solution of N-[tris-(hydroxymethyl)methyl]-glycine buffered deionized water with concentrated sodium hydroxide to a pH of […]. Malt yeast agar is prepared by adding 3 g yeast extract and 45 g malt agar per liter of deionized water. The specific agar is dispensed in 30 ml aliquots into 25×200 mm test tubes, capped and autoclaved for 15 minutes at 115° C. The test tubes containing the agar are cooled in a water bath until the temperature of the agar is 48 ° C. Then, an appropriate amount of the one percent solution of the test compound is added (except in the controls where no compound is added) to the respective test tubes so that the final concentrations are 500, 250, 100, 50, 25, 10, 5, 2.5, 1.0 and zero parts per million of the test compound in the agar, thus having a known concentration of test compound dispersed therein. The contents of the test tubes are then transferred to respective petri plates. After drying for 24 hours, the petri plates containing nutrient agar are inoculated with bacteria and those containing malt yeast agar are inoculated with yeast and fungi.
(§2) The inoculation with the yeast and fungi is accomplished as follows. Cultures of yeast and fungi are incubated for seven days on malt yeast agar at 30° C. These cultures are used to prepare suspensions by the following procedure. A suspension of each organism is prepared by adding 10 ml of sterile saline and 10 microliters of octylphenoxy polyethoxy ethanol to the agar slant of yeast or fungi. The sterile saline/octylphenoxy polyethoxy ethanol solution is then agitated with a sterile swab to suspend the microorganism grown on the slant. Each resulting suspension is diluted into sterile saline (1 part suspension: 9 parts sterile saline). Aliquots of these dilutions are placed in individual wells of Steer's Replicator and petri plates inoculated as previously described. The petri plates are incubated at 30° C. and read after 48 hours for yeast and 72 hours for fungi.

[2] = test system: Penicillium chrysogenum (Pc); test: as above; conditions: pH 5.5; ATCC 9480; 30° C.; 48 hours for yeast, 72 hours for fungi
Description: as §1, §2

[3] = test system: Saccharomyces cerevisiae (Sc); test: as above; conditions: ATCC4105, pH 5.5, ATCC 4105, 30° C., 48 hours for yeast, 72 hours for fungi
Description: as §1, §2

[4] = test system: Fusarium oxysporum (Fo); test: as above; conditions: pH 5.5; ATCC 48112; 30° C.; 48 hours for yeast, 72 hours for fungi
Description: as §1, §2

[5] = test system: Candida Albicans (Ca); test: as above; conditions: pH 5.5; ATCC 10231; 30° C.; 48 hours for yeast, 72 hours for fungi
Description: as §1, §2

[6] = test system: Aureobasidium pullulan (Ap); test: as above; conditions: pH 5.5; ATCC 16622; 30° C.; 48 hours for yeast, 72 hours for fungi
Description: as §1, §2

[7] = test system: Aspergillus niger (An); test: as above; conditions: pH 5.5; ATCC 16404; 30° C.; 48 hours for yeast, 72 hours for fungi
Description: as §1, §2

[8] = test system: Bacillus subtilis (Bs); test: Minimum inhibitory concentration (MIC), nutrient agar; conditions: 48 hours
Description: as §1
(§3) The inoculation with bacteria is accomplished by using the following procedure. Twenty-four hour-cultures of each of the bacteria are prepared by incubating the respective bacteria in tubes containing nutrient broth for 24 hours at 30° C. in a shaker. Dilutions of each of the 24 hour-cultures are made so that nine separate suspensions (one for each of the nine test bacteria) are made, each containing 10^8 colony forming units (CFU) per ml of suspension of a particular bacteria. Aliquots of 0.3 ml of each of the bacterial suspensions are used to fill the individual wells of Steer's Replicator. For each microbial suspension, 0.3 ml was used to fill three wells (i.e., three wells of 0.3 ml each) so that for the nine different bacteria, 27 wells are filled. The Steer's Replicator is then used to inoculate both the neutral and alkaline pH nutrient agar petri plates.
(§4) The inoculated petri plates are incubated at 30° C. for 48 hours and then read to determine if the test compound which is incorporated into the agar prevented growth of the respective bacteria.

[9] = test system: Staphylococcus aureus (Sa); test: as above; conditions: 48 hours
Description: as §1, §3, §4

[10] = test system: Pseudomonas aeruginosa (Pa); test: as above; conditions: 48 hours
Description: as §1, §3, §4

[11] = test system: Enterobacter aerogenes (Ea); test: as above; conditions: Klebsiella aerogenes, ATCC13048, ATCC 13048, 30° C., 48 hours
Description: as §1, §3, §4

[12] = test system: Escherichia coli (Ec); test: as above; conditions: 48 hours
Description: as §1, §3, §4

[13] = test system: Pseudomonas aeruginosa (PRD-10); test: as above; conditions: 48 hours
Description: as §1, §3, §4

[14] = test system: Salmonella choleraesuis (Sc); test: as above; conditions: Salmonella enterica, ATCC 10708 / CHOLERAESUIS, 48 hours
Description: as §1, §3, §4

[15] = test system: Klebsiella pneumoniae (Kp); test: as above; conditions: 48 hours
Description: as §1, §3, §4

[16] = test system: Proteus vulgaris (Pv); test: as above; conditions: 48 hours
Description: as §1, §3, §4

N#CSCSc1nn(-c2ccccc2)c(=S)s1 [INVENTION, 3-phenyl-5-thiocyanomethylthio-1,3,4-thiadiazole-2(3H)thione]
MIC [1]: 25 µg/mL (≈ 84 µM) | MIC [2]: 2.5 µg/mL (≈ 8.4 µM) | MIC [3]: 5 µg/mL (≈ 16.8 µM) | MIC [4]: 10 µg/mL (≈ 33.6 µM) | MIC [5]: 25 µg/mL (≈ 84 µM) | MIC [6]: 2.5 µg/mL (≈ 8.4 µM) | MIC [7]: 5 µg/mL (≈ 16.8 µM) | MIC ([8]; ATCC8473, pH 6.8, ATCC 8473, 30° C.): 100 µg/mL (≈ 336 µM) | MIC ([8]; ATCC8473, pH 8.2, ATCC 8473, 30° C.): < 10 µg/mL | MIC ([9]; ATCC6538, pH 6.8, ATCC 6538, 30° C.): 100 µg/mL (≈ 336 µM) | MIC ([9]; ATCC6538, pH 8.2, ATCC 6538, 30° C.): 250 µg/mL (≈ 840 µM) | MIC ([10]; ATCC10145, pH 6.8, ATCC 10145, 30° C.): 50 µg/mL (≈ 168 µM) | MIC ([10]; ATCC10145, pH 8.2, ATCC 10145, 30° C.): 50 µg/mL (≈ 168 µM) | MIC ([11]; pH 6.8): 100 µg/mL (≈ 336 µM) | MIC ([11]; pH 8.2): > 500 µg/mL | MIC ([12]; ATCC11229, pH 6.8, ATCC 11229, 30° C.): 100 µg/mL (≈ 336 µM) | MIC ([12]; ATCC11229, pH 8.2, ATCC 11229, 30° C.): 500 µg/mL (≈ 1680 µM) | MIC ([13]; ATCC15442, pH 6.8, ATCC 15442, 30° C.): 50 µg/mL (≈ 168 µM) | MIC ([13]; ATCC15442, pH 8.2, ATCC 15442, 30° C.): 100 µg/mL (≈ 336 µM) | MIC ([14]; pH 6.8, 30° C.): 100 µg/mL (≈ 336 µM) | MIC ([14]; pH 8.2, 30° C.): 500 µg/mL (≈ 1680 µM) | MIC ([15]; ATCC8308, pH 6.8, ATCC 8308, 30° C.): 100 µg/mL (≈ 336 µM) | MIC ([15]; ATCC8308, pH 8.2, ATCC 8308, 30° C.): 250 µg/mL (≈ 840 µM) | MIC ([16]; ATCC881, pH 6.8, ATCC 881, 30° C.): 100 µg/mL (≈ 336 µM) | MIC ([16]; ATCC881, pH 8.2, ATCC 881, 30° C.): 250 µg/mL (≈ 840 µM)
